Data taken from patent US11365425B2, “Resistant protein for use in herbicide, encoding gene and application thereof” (BEIJING DABEINONG BIOTECHNOLOGY CO., LTD., priority 2016, dated 2022).
Where two headings read alike, the source gives them in different places.

Legend:
[1] = system: Arabidopsis thaliana T1 plants (At-mMTHFR66); settings: 560 g ae/ha dicamba (1 × dicamba) sprayed
Source text: (§1) Arabidopsis thaliana was first transformed with the MTHFR66 gene. T1 transformants were initially selected from the background of untransformed seeds using a glufosinate selection scheme. The plants that were transformed with the recombinant expression vector DBN111101 were Arabidopsis thaliana plants (At mMTHFR66) into which an optimized MTHFR66 nucleotide sequence located in the chloroplast was introduced, and the plants that were transformed with the recombinant expression vector DBN111101N were Arabidopsis thaliana plants (At MTHFR66) into which a natural MTHFR66 nucleotide sequence located in the chloroplast was introduced. […] Arabidopsis thaliana T1 plants (At-mMTHFR66) into which an optimized MTHFR66 nucleotide sequence was introduced, Arabidopsis thaliana T1 plants (At-MTHFR66) into which a natural MTHFR66 nucleotide sequence was introduced and wild-type Arabidopsis thaliana plants (18 days after sowing) were tested for the herbicide tolerance effect to dicamba.
(§2) Arabidopsis thaliana T1 plants into which an optimized MTHFR66 nucleotide sequence was introduced, Arabidopsis thaliana T1 plants into which a natural MTHFR66 nucleotide sequence was introduced and wild-type Arabidopsis thaliana plants were sprayed with dicamba (560 g ae/ha, 1-fold field concentration) and a blank solvent (water) respectively. Plants were counted for the tolerance situations 7 days and 14 days after spraying: those having a consistent growth status with the blank solvent (water) group after 7 days were classified as highly resistant plants, those having curled rosette leaves after 7 days were classified as moderately resistant plants, those still not capable of bolting after 14 days were classified as lowly resistant plants, and those dead after 14 days were classified as non-resistant plants. Since each Arabidopsis thaliana T1 plant was an independent transformation event, a significant difference in individual T1 responses could be expected at a given dose. The results were shown as Table 1 and FIG. 9.

[2] = system: wild-type Arabidopsis thaliana plants; settings: 560 g ae/ha dicamba (1 × dicamba) sprayed
Source text: as §1, §2

[3] = system: Arabidopsis thaliana T1 plants (At-MTHFR66); settings: 560 g ae/ha dicamba (1 × dicamba) sprayed
Source text: as §1, §2

[4] = system: maize plants (Zm-MTHFR66); settings: 4480 g ae/ha dicamba (8 × dicamba), V5-V6 stage, 21 days after spraying
Source text: (§3) The maize plants into which the optimized MTHFR66 nucleotide sequence was introduced, the maize plants into which the natural MTHFR66 nucleotide sequence was introduced and wild-type maize plants (at V5-V6 stage) were respectively tested for the herbicide resistance effect to dicamba.
(§4) The maize plants into which the optimized MTHFR66 nucleotide sequence was introduced, the maize plants into which the natural MTHFR66 nucleotide sequence was introduced and wild-type maize T1 hybrid plants (at V5-V6 stage) were taken and sprayed with a dicamba herbicide (4480 g ae/ha, 8-fold field concentration) and a blank solvent (water) respectively. 21 days after spraying, the support root development situation was collected. A total of three strains (S1, S2 and S3) of Zm-mMTHFR66, a total of two strains (S4 and S5) of Zm-MTHFR66, and a total of 1 strain of wild type (CK) were taken; and 10-15 plants were selected from each strain and tested.

[5] = system: maize plants (Zm-mMTHFR66); settings: 4480 g ae/ha dicamba (8 × dicamba), V5-V6 stage, 21 days after spraying
Source text: as §3, §4

[6] = system: wild-type maize plants (CK); settings: 4480 g ae/ha dicamba (8 × dicamba), V5-V6 stage, 21 days after spraying
Source text: as §3, §4

[7] = Determination of enzymatic activity of MTHFR66 protein (dicamba to DCSA, HPLC); assay type: biochemical
Method: Enzymatic reaction system (300 μL): containing 1 mM substrate (dicamba), 0.2 mg of MTHFR66, 1 mM tetrahydrofolate (THF) and a buffer system of Tris-HCl at a concentration of 100 mM (pH 8.0), which were reacted in a water bath at a temperature of 30° C. for 1 hour, then kept in boiling water for 1 min, after which the reaction was terminated. The reaction solution was lyophilized, and then dissolved by adding 300 μl of methanol. The amount of the generated intermediate metabolite of dicamba, 3,6-dichlorosalicylic acid (DCSA), was detected using high performance liquid chromatography (HPLC). An enzymatic activity unit is defined as: the amount of enzyme required for degradation of dicamba to generate 1 nmol of product DCSA at pH 8.0, at a temperature of 30° C. within 1 min, and is expressed as U.

[8] = Dicamba demethylation function of MTHFR66 protein in the presence of trace tetrahydrofolate; assay type: biochemical; settings: 1 mM dicamba, 30° C., 1 hour
Method: […] The reaction solution was lyophilized, and then dissolved by adding 300 μl of methanol. The amount of the generated intermediate metabolite of dicamba, DCSA, was detected using high performance liquid chromatography (HPLC).

[9] = Hydrolase functional determination and product identification of MTHFR66 protein; assay type: biochemical; settings: absence of the electron acceptor NAD+
Method: Enzymatic reaction system (300 μL): containing 0.2 mg of MTHFR66, 1 mM 5-methyl-tetrahydrofolate (5-CH3—H4F) and a buffer system of Tris-HCl at a concentration of 100 mM (pH 8.0), which were reacted in a water bath at a temperature of 30° C. for 1 hour, then kept in boiling water for 1 min, after which the reaction was terminated. The reaction solution was lyophilized, dissolved by adding 300 μl of 0.1 mol/L KH2PO4 (pH 6.8, 1% ascorbic acid and 0.1% β-mercaptoethanol), filtered using a filter membrane (with a pore size of 0.22 μm), and detected using high performance liquid chromatography. Liquid chromatography conditions were: mobile phase: 0.05 mol/l KH2PO4 (pH 3.0):acetonitrile (90:10, V/V), Zorbax C218 ODS Spherex reversed phase column (5 μm, 4.6 mm×250 mm, Agilent, USA), column temperature of 23° C., UV-detector, with a detection wavelength of 298 nm, a sample injection volume of 20 μl, and a flow rate of 1.0 mL/min. Quantification was performed by peak area according to the external standard method.
Metabolites were identified through HPLC-MS (high performance liquid chromatography-mass spectrum) under the conditions as follows: mobile phase: 0.05 mol/l KH2PO4 (pH 3.0):acetonitrile (90:10, V/V), Zorbax XDB-C18, 5 cm×0.46 cm, 1.8 mm reversed phase column (5 μm, 4.6 mm×250 mm, Agilent, USA), and a flow rate of 0.25 mL/min. […]

[10] = curled rosette leaves after 7 days
[11] = growth consistent with water group after 7 days
[12] = not capable of bolting after 14 days

With `COc1c(Cl)ccc(Cl)c1C(=O)O` [dicamba, 3,6-dichloro-o-anisic acid] the “Moderately resistant (number of plants)” value [1, 10] was 18, the “Non-resistant (number of plants)” value ([1]; dead after 14 days) was 5 and the “Highly resistant (number of plants)” value [1, 11] was 0. For the same molecule, the “Lowly resistant (number of plants)” value [1, 12] was 0, the “Moderately resistant (number of plants)” value [2, 10] was 0 and the “Non-resistant (number of plants)” value ([2]; dead after 14 days) was 22. For the same molecule, the “Highly resistant (number of plants)” value [2, 11] was 0, the “Lowly resistant (number of plants)” value [2, 12] was 0 and the “Moderately resistant (number of plants)” value [3, 10] was 3. For the same molecule, the “Non-resistant (number of plants)” value ([3]; dead after 14 days) was 19, the “Highly resistant (number of plants)” value [3, 11] was 0 and the “Lowly resistant (number of plants)” value [3, 12] was 2. For the same molecule, the “Proportion of normally developed support root” value (shortened to “Proportion”) ([4]; strain S4 (Zm-MTHFR66)) was 16.67%, the “Support root abnormally developed (number of plants)” value (from here on “Support root abnormally developed”) ([4]; strain S4 (Zm-MTHFR66)) was 10 and the “Support root normally developed (number of plants)” value (“Support root normally developed” below) ([4]; strain S4 (Zm-MTHFR66)) was 2. The “Proportion” value ([4]; strain S5 (Zm-MTHFR66)) was 30.77%, the “Support root abnormally developed” value ([4]; strain S5 (Zm-MTHFR66)) was 9 and the “Support root normally developed” value ([4]; strain S5 (Zm-MTHFR66)) was 4. The “Proportion” value ([5]; strain S1 (Zm-mMTHFR66)) was 92.31%, the “Support root abnormally developed” value ([5]; strain S1 (Zm-mMTHFR66)) was 1 and the “Support root normally developed” value ([5]; strain S1 (Zm-mMTHFR66)) was 12. For the same molecule, the “Proportion” value ([5]; strain S2 (Zm-mMTHFR66)) was 90.91%, the “Support root abnormally developed” value ([5]; strain S2 (Zm-mMTHFR66)) was 1 and the “Support root normally developed” value ([5]; strain S2 (Zm-mMTHFR66)) was 10. The “Proportion” value ([5]; strain S3 (Zm-mMTHFR66)) was 83.33%, the “Support root abnormally developed” value ([5]; strain S3 (Zm-mMTHFR66)) was 2 and the “Support root normally developed” value ([5]; strain S3 (Zm-mMTHFR66)) was 10. The “Proportion” value [6] was 0%, the “Support root abnormally developed” value [6] was 16 and the “Support root normally developed” value [6] was 0.

B1: MTHFR66 protein: herbicide resistant protein, methyltetrahydrofolate reductase, amino acid sequence SEQ ID NO: 2 (289 amino acids) (protein, listed as Sphingomonas paucimobilis)
chain: MGSPVMAIDCDSVPDNLVHCFSIEMTGKDIDALQAAAPLLPPGTSVAVTFLPGENYETRIAACKAVRDLGFEPMPHFSARRIQDEAEFHDFLHAVVAEAKVRRCFVIAGDAAEPEGPYADSMQLIASGAFEAAGIDLIGVAGHPEGHPNMTAGEATAVLRAKTDEIERRGMAALIVTQFTFDAARTLDWLAEVRQAGIDVPVLLGVPGPAGIKTLLRFAARCGVGASASVLSKYGISIGHLLGSAGPDRFVDALRAGIGEQHGHVRLHFYPFGGLDKTARWIADYARKH
In the case of B1, the “DCSA generated within 1 hour” value ([7]; 1 mM dicamba, 0.2 mg MTHFR66, 1 mM THF, Tris-HCl pH 8.0, 30° C., 1 hour) is reported as 0.15 mM, the specific enzymatic activity ([7]; U = enzyme generating 1 nmol DCSA from dicamba at pH 8.0, 30° C. within 1 min) is reported as 3.75 U/mg and the “demethylation of dicamba to DCSA” value ([8]; in the presence of 0.01 mM tetrahydrofolate) is reported as “can demethylate dicamba to generate DCSA”. The “demethylation of dicamba to DCSA” value ([8]; in the presence of 0.5 mM of tetrahydrofolate) was “can fully demethylate 1 mM dicamba to generate DCSA”, the “product of 5-methyl-tetrahydrofolate metabolism (HPLC-MS)” value [9] was “can hydrolyze 5-methyl-tetrahydrofolate to tetrahydrofolate” and the “transformation of 5-methyl-tetrahydrofolate (HPLC)” value ([9]; 1 mM 5-methyl-tetrahydrofolate, 30° C., 1 hour) was “can transform 5-methyl-tetrahydrofolate to other substances”.
